In patent publication US6592893B1, “Transdermal patch and topical compositions comprising propylnorapomorphine” (priority 1998, dated 2003):

What was measured:
[1] = activity compared with APO; details: greater than that of APO
Method: For this reason, when said compounds are given at suitable doses over 24 hours, effects which are rather more beneficial than those of APO are obtained.

[2] = toxicity compared with APO
[3] = half-life compared with APO
[4] = in vitro cell permeation study with guinea-pig skin (Type III patch); assay type: in vitro ADME
Method: Then, three particular non-limiting examples of the pharmaceutical composition used to form the matrix of a Type III patch will be illustrated (FIG. 3). The Type III patch, containing a matrix made up of these three types of formulations, will then be “tested” on guinea-pig skin, to analyse the permeation of the active principle, both with regard to the accumulation of active principle over 48 hours (FIG. 4) and with regard to the flow (also over 48 hours, FIG. 5).

[5] = accelerated stability test of the patch formulation; assay type: physicochemical; details: with antioxidant (sodium metabisulphite), 15 days at 40° C. and 75% RH
[6] = i.v., s.c., i.m., rectal, sublingual or intranasal route; cited from earlier work
[7] = continuous subcutaneous infusion, 2-5 mg/hour; cited from earlier work

Structure (SMILES)	activity relative to APO [1]	toxicity relative to APO [2]	half-life relative to APO [3]	skin permeability [4]	chemical stability in the formulation of the patch [5]	latent period (attack) [6]	local side effect at the infusion site [7]
CCCN1CCc2cccc3c2[C@@H]1Cc1ccc(O)c(O)c1-3.Cl [Compound (2), S(+)-propylnorapomorphine hydrochloride]	10 times	lower	greater	–	–	–	–
CCCN1CCc2cccc3c2[C@H]1Cc1ccc(O)c(O)c1-3.Cl [Compound (1), R(−)-propylnorapomorphine hydrochloride]	10 times	lower	greater	sufficient	demonstrated	–	–
CN1CCc2cccc3c2[C@H]1Cc1ccc(O)c(O)c1-3 [Apomorphine]	–	–	–	–	–	about 15 ′	subcutaneous granulomas form around the infusion site
